In the supplement of paper PMC10627819:

Legend:
[1] = test system: B. subtilis 168; test: Bliss interaction score (quartile over a dose matrix) (fitness difference); higher = more antagonism (negative = synergy)
How it was run: (§1)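 The Bliss score was calculated by subtracting the expected fitness, the product of single-drug values, from the observed fitness. OD595 at entry into stationary phase, over the plate's robust no-drug mean and capped at 1, served as the fitness readout. Single-drug values were inferred from combination data, and scores are summarised by quartiles across technical, biological and donor/recipient replicates.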

[2] = test system: S. aureus DSM 20231; test: as above
How it was run: as §1

[3] = test system: S. aureus Newman; test: as above
How it was run: as §1

[4] = test system: S. pneumoniae D39V; test: as above
How it was run: as §1

[5] = test system: B. subtilis 168; test: fitness (endpoint OD595 vs no drug) (fraction); higher = more growth
How it was run: (§2)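 Fitness was defined as the optical density at the transition into stationary phase relative to the robust mean of no-drug control wells. Values were capped at 1. Cultures were started at OD595 0.01 in 384-well plates (30 µl, or 55 µl for S. pneumoniae) in TSB, LB Lennox or CY at 37 °C. OD595 was recorded every 30 min over 14 h, with the first reading subtracted as background.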

[6] = test system: S. aureus Newman; test: as above
How it was run: as §2

[7] = test system: S. pneumoniae D39V; test: as above
How it was run: as §2
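Throughout, for Bliss interaction score (quartile over a dose matrix): first quartile when negative (synergy) and third quartile when positive (antagonism).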

CCCCCCCCCC(=O)N[C@@H](Cc1c[nH]c2ccccc12)C(=O)N[C@H](CC(N)=O)C(=O)N[C@@H](CC(=O)O)C(=O)N[C@@H]1C(=O)NCC(=O)N[C@@H](CCCN)C(=O)N[C@@H](CC(=O)O)C(=O)N[C@H](C)C(=O)N[C@@H](CC(=O)O)C(=O)NCC(=O)N[C@H](CO)C(=O)N[C@@H]([C@H](C)CC(=O)O)C(=O)N[C@@H](CC(=O)c2ccccc2N)C(=O)O[C@@H]1C [Daptomycin] + CN(C)c1cc(NC(=O)CNC(C)(C)C)c(O)c2c1C[C@H]1C[C@H]3[C@H](N(C)C)C(O)=C(C(N)=O)C(=O)[C@@]3(O)C(O)=C1C2=O [Tigecycline]
Conditions	Bliss interaction score
[1]	-0.0609
[2]	0.0697
[3]	-0.037
[4]	0.0991

fitness
Conditions	first compound 0.125 µg/mL	first compound 0.25 µg/mL	first compound 0.5 µg/mL	first compound 1 µg/mL	first compound 2 µg/mL	first compound 4 µg/mL
[5], partner 0.039 µg/mL	0.929	0.926	0.869	–	–	–
[5], partner 0.078 µg/mL	0.89	0.892	0.867	–	–	–
[5], partner 0.156 µg/mL	0.904	0.905	0.885	–	–	–
[6], partner 0.039 µg/mL	0.932	0.984	0.917	–	–	–
[6], partner 0.078 µg/mL	≥ 1	0.988	0.987	–	–	–
[6], partner 0.156 µg/mL	≥ 1	0.997	0.991	–	–	–
[7], partner 0.325 µg/mL	–	–	–	0.973	0.993	0.976
[7], partner 0.65 µg/mL	–	–	–	0.959	0.945	0.963
[7], partner 1.3 µg/mL	–	–	–	0.963	0.956	0.972
[7], partner 2.6 µg/mL	–	–	–	0.911	0.903	0.956

fitness, [5], one replicate
Conditions	partner 0.039 µg/mL	partner 0.078 µg/mL	partner 0.125 µg/mL	partner 0.156 µg/mL	partner 0.25 µg/mL	partner 0.5 µg/mL
first compound 0.125 µg/mL	–	–	0.985	–	0.902	0.899
first compound 0.25 µg/mL	–	–	0.974	–	0.926	0.981
first compound 0.5 µg/mL	–	–	0.955	–	0.944	0.989
first compound 1 µg/mL	0.759	0.732	–	0.731	–	–

CO/N=C(\C(=O)N[C@@H]1C(=O)N2C(C(=O)[O-])=C(C[N+]3(C)CCCC3)CS[C@H]12)c1csc(N)n1 [Cefepime] + CC1=C(C(=O)O)N2C(=O)[C@@H](NC(=O)[C@H](N)c3ccccc3)[C@H]2SC1 [Cephalexin]
Conditions	Bliss interaction score
[1]	0.0474
[2]	0.0619
[3]	-0.0529
[4]	-0.105

fitness
Conditions	first compound 0.007 µg/mL	first compound 0.014 µg/mL	first compound 0.028 µg/mL	first compound 0.125 µg/mL	first compound 0.25 µg/mL	first compound 0.5 µg/mL
[6], partner 0.25 µg/mL	–	–	–	0.941	0.876	0.843
[6], partner 0.5 µg/mL	–	–	–	0.939	0.867	0.8
[6], partner 1 µg/mL	–	–	–	0.969	0.922	0.861
[7], partner 1 µg/mL	0.93	0.923	0.584	–	–	–
[7], partner 2 µg/mL	0.101	0.0733	0.0074	–	–	–
[7], partner 4 µg/mL	0.0209	0.0355	0.015	–	–	–

fitness, [7], one replicate
Conditions	first compound 0.0078 µg/mL	first compound 0.0155 µg/mL	first compound 0.031 µg/mL
partner 0.125 µg/mL	≥ 1	0.94	0.434
partner 0.25 µg/mL	0.988	0.96	0.529
partner 0.5 µg/mL	≥ 1	0.925	0.297

CC1(C)S[C@@H]2[C@H](NC(=O)[C@H](N)c3ccc(O)cc3)C(=O)N2[C@H]1C(=O)O [Amoxicillin] + O=C(O)c1cn(C2CC2)c2cc(N3CCNCC3)c(F)cc2c1=O [Ciprofloxacin]
Conditions	Bliss interaction score
[1]	-0.063
[2]	-0.0788
[3]	-0.0561
[4]	0.0751

Conditions	fitness
[6], first compound 0.0625 µg/mL, partner 0.0375 µg/mL	0.734
[6], first compound 0.0625 µg/mL, partner 0.075 µg/mL	0.656
[7], first compound 0.0008 µg/mL, partner 0.125 µg/mL	0.93
[7], first compound 0.0008 µg/mL, partner 0.25 µg/mL	0.834
[7], first compound 0.0015 µg/mL, partner 0.125 µg/mL	0.94
[7], first compound 0.0015 µg/mL, partner 0.25 µg/mL	0.828
[7], first compound 0.003 µg/mL, partner 0.125 µg/mL	0.934
[7], first compound 0.003 µg/mL, partner 0.25 µg/mL	0.826
[7], first compound 0.003 µg/mL, partner 0.5 µg/mL	0.747

fitness, one replicate
Conditions	partner 0.078 µg/mL	partner 0.125 µg/mL	partner 0.156 µg/mL	partner 0.25 µg/mL	partner 0.312 µg/mL	partner 0.5 µg/mL
[6], first compound 0.0625 µg/mL	0.327	–	0.075	–	0.0582	–
[6], first compound 0.125 µg/mL	0.192	–	0.0621	–	0.038	–
[6], first compound 0.25 µg/mL	0.144	–	0.056	–	0.0663	–
[7], first compound 0.006 µg/mL	–	0.549	–	0.474	–	0.453

CC1(C)S[C@@H]2[C@H](NC(=O)[C@H](N)c3ccc(O)cc3)C(=O)N2[C@H]1C(=O)O [Amoxicillin] + CC(C1CCC(C(O1)OC2C(CC(C(C2O)OC3C(C(C(CO3)(C)O)NC)O)N)N)N)NC [Gentamicin]
main component drawn
Conditions	Bliss interaction score
[1]	-0.0767
[2]	0.0684
[3]	0.0602
[4]	0.055

fitness, main component drawn
Conditions	partner 0.375 µg/mL	partner 0.5 µg/mL	partner 0.75 µg/mL	partner 1 µg/mL	partner 1.5 µg/mL	partner 2 µg/mL	partner 4 µg/mL	partner 8 µg/mL
[6], first compound 0.0625 µg/mL	0.91	0.878	0.896	0.911	0.892	0.972	–	–
[6], first compound 0.125 µg/mL	0.984	0.851	≥ 1	0.899	0.974	0.968	–	–
[6], first compound 0.25 µg/mL	0.983	0.858	0.944	0.847	0.961	–	–	–
[7], first compound 0.0008 µg/mL	–	–	–	–	–	0.977	0.935	0.942
[7], first compound 0.0015 µg/mL	–	–	–	–	–	0.988	0.94	0.946
[7], first compound 0.003 µg/mL	–	–	–	–	–	0.926	0.9	0.851

fitness, one replicate, main component drawn
Conditions	partner 2 µg/mL	partner 4 µg/mL	partner 8 µg/mL
[6], first compound 0.0625 µg/mL	–	0.0669	–
[6], first compound 0.125 µg/mL	–	0.0478	–
[6], first compound 0.25 µg/mL	–	0.0624	–
[7], first compound 0.006 µg/mL	0.587	0.634	0.508
